Data set [1] relates to Meloidogyne incognita. The data set is described as follows: Nematicidal activity against Meloidogyne incognita (root-knot nematode) at 1 kg/ha after 3 weeks. In kind it is functional.
The subject of data set [2] is Tetranychus urticae. The data set is described as follows: Acaricidal activity against Tetranychus urticae (two-spotted spider mite) in French bean leaf at <50 ppm after 2 days. In kind it is functional.
Data set [3] in a line: Acute toxicity in Mus musculus (mouse). In kind it is organism-based. The following applies: in vivo.
Data set [4] in a line: Dissociation constant, pKa of the compound by titration method. In kind it is physicochemical.
Data set [5] relates to Myzus persicae. The data set is described as follows: Aphicidal activity against Myzus persicae (green peach aphid) in cabbage leaf at <50 ppm after 2 days. In kind it is functional.
The subject of data set [6] is Meloidogyne incognita. The data set is described as follows: Insecticidal activity against Meloidogyne incognita (root-knot nematode). In kind it is functional, organism-based.
Data set [7] has as its system Myzus persicae. The data set is described as follows: Insecticidal activity against Myzus persicae (green peach aphid). In kind it is functional.
For data set [8], the system named is Tetranychus urticae. As to the kind of experiment: Insecticidal activity against Tetranychus urticae (two-spotted spider mite). In kind it is functional.
Data set [9] has as its system Musca domestica. As to the kind of experiment: Insecticidal activity against adult Musca domestica (house fly) assessed per adult. In kind it is functional.
Data set [10] concerns Meloidogyne incognita. The data set is described as follows: Nematicidal activity against Meloidogyne incognita (root-knot nematode) at 1 to 4 kg/ha after 3 weeks. In kind it is functional.
For data set [11], the system named is Meloidogyne incognita. The data set is described as follows: Nematicidal activity against Meloidogyne incognita (root-knot nematode) at 4 to 8 kg/ha after 3 weeks. In kind it is functional.
Data set [12] concerns Myzus persicae. As to the kind of experiment: Aphicidal activity against Myzus persicae (green peach aphid) in cabbage leaf at 200 to 800 ppm after 2 days. In kind it is functional.
For data set [13], the system named is Tetranychus urticae. The data set is described as follows: Acaricidal activity against Tetranychus urticae (two-spotted spider mite) in French bean leaf at 200 to 800 ppm after 2 days. In kind it is functional.
Data set [14] deals with Meloidogyne incognita. The data set is described as follows: Nematicidal activity against Meloidogyne incognita (root-knot nematode) at 8 kg/ha after 3 weeks. In kind it is functional.
Data set [15] concerns Myzus persicae. The data set is described as follows: Aphicidal activity against Myzus persicae (green peach aphid) in cabbage leaf at 800 ppm after 2 days. In kind it is functional.
Data set [16] relates to Tetranychus urticae. As to the kind of experiment: Acaricidal activity against Tetranychus urticae (two-spotted spider mite) in French bean leaf at 800 ppm after 2 days. In kind it is functional.
The test system of data set [17] is Tetranychus urticae. As to the kind of experiment: Acaricidal activity against Tetranychus urticae (two-spotted spider mite) in French bean leaf at 50 to 200 ppm after 2 days. In kind it is functional.
For data set [18], the system named is Myzus persicae. As to the kind of experiment: Aphicidal activity against Myzus persicae (green peach aphid) in cabbage leaf at 50 to 200 ppm after 2 days. In kind it is functional.
In data set [19] the target is Acetylcholinesterase (Musca domestica, UniProt Q7YWJ9). As to the kind of experiment: Inhibition of Musca domestica (house fly) head AchE. The following applies: read-out: I50.
Acetylcholinesterase, sequence (Q7YWJ9 whole entry): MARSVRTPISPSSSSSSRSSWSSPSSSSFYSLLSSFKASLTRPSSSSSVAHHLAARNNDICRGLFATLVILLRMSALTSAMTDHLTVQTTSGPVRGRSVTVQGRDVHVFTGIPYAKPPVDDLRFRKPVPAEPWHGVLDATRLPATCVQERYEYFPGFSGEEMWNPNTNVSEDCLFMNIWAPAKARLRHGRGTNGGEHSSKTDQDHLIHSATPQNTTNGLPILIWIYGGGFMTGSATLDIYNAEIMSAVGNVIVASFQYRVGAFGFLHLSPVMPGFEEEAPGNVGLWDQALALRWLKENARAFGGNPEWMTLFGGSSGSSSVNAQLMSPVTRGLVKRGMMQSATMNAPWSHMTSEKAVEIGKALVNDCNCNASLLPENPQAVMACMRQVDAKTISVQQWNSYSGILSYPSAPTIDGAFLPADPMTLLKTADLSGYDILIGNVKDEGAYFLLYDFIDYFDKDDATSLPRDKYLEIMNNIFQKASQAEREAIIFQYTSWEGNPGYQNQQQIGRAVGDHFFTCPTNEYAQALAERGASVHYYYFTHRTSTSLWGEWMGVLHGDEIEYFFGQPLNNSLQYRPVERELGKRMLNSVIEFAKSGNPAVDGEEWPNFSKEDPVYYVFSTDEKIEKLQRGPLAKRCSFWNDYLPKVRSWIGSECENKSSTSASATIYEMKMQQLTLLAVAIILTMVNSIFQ

Where only a bound is given, the exact number is not on record here.

Turning to `CCOP(=O)(SC(C)CC)N1C(=O)OC(C)C1C` (stereo not given), the results for the Activity in data set [1] and in data set [2] were 0% and greater than 90%, respectively.
Consider `CCOP(=O)(SC(C)CC)N1CCOC1=O` (stereo not given), for which the LD50 in data set [3] was less than 30 mg/kg. For the same compound, the pKa in [4] stood at 11.8. Further, the results for the Activity in [1], in data set [5] and in [2] were 0%, greater than 90% and greater than 90%, respectively.
`CCOP(=O)(SC(C)CC)N1CCSC1=O` (single isomer, unassigned; (+)) [FOSTHIAZATE] had an EC50 in data set [6] of 2.339 ppm. For the same compound, the LC50 in [7] is greater than 53.7 ppm; in data set [8] it was greater than 800 ppm. This compound showed an Activity in data set [9] of 1.945 µg.
Take `CCOP(=O)(SCC(C)C)N1CCOC1=O` (stereo not given): the Activity in data set [10] is listed as 0%; in data set [5], greater than 90%; in data set [2], greater than 90%.
Turning to `CCOP(=O)(SC(C)CC)N1CC(S(C)(=O)=O)OC1=O` (stereo not given), the Activity in [11] is 0%; in [12], greater than 90%; in data set [13] it was greater than 90%.
Consider `CCOP(=O)(SC(C)CC)n1ccoc1=O` (stereo not given), for which the Activity is greater than 25% in data set [14], less than 90% in data set [15] and less than 90% in [16].
On to `CCOP(=O)(SC(C)CC)N1CCSC1=S` (stereo not given), for which the values for the Activity in data set [14], in data set [12] and in [17] were greater than 25%, greater than 90% and greater than 90%, respectively.
Consider `CCOP(=O)(SC(C)CC)N1C(=O)OCC1C(=O)OC` (stereo not given), for which the Activity in [14] is reported as greater than 25%; in data set [15], less than 90%; in [13], greater than 90%.
Consider `CCC(C)SP(=O)(OC)N1CCOC1=O` (stereo not given), for which the values for the Activity in [14], in [12] and in data set [13] were greater than 25%, greater than 90% and greater than 90%, respectively.
Compound `CCOP(=O)(SC(C)CC)N1CCSC1=O` (racemic) [FOSTHIAZATE] yielded an EC50 in data set [6] of 29.6 ppm. Besides, the LC50 in data set [7] is greater than 4.06 ppm; in data set [8], greater than 22.4 ppm. For the same compound, the Activity in [9] was found to be 18 µg.
Take `CCOP(=O)(SC(C)CC)N1CCSC1=O` (stereo not given) [FOSTHIAZATE]: the LD50 in data set [3] worked out at 127 mg/kg. Also, in [4], the pKa amounted to 11.6. Also, the Activity in data set [1] is listed as 0%; in [5], greater than 90%; in data set [2], greater than 90%.
`CCOP(=O)(SC(C)CC)N1C(=O)OCC1OC` (stereo not given): the Activity is given as 0% in data set [1], greater than 90% in [18] and greater than 90% in [17].
For `CCOP(=S)(SC(C)CC)N1CCOC1=O` (stereo not given), the Activity in data set [14] is greater than 25%; in data set [12], greater than 90%; in data set [13] it was greater than 90%.
For the compound `CCOP(=O)(SC(C)CC)N1OCCC1=O` (stereo not given), the pKa in data set [4] is 10.5. The Activity in data set [14] is on record as greater than 25%; in data set [12], greater than 90%; in [13], greater than 90%.
On to `CCOP(=O)(SC(C)CC)N1CC(C#N)OC1=O` (stereo not given), for which the Activity is 0% in data set [11], less than 90% in data set [15] and greater than 90% in [13].
`CCOP(=O)(SC(C)CC)N1CCSC1=C(C#N)C#N` (stereo not given): the figures for the Activity in data set [14], in data set [12] and in [16] were greater than 25%, greater than 90% and less than 90%, respectively.
Take `CCOP(=O)(SC(C)CC)N1CC(C)OC1=O` (stereo not given): the results for the Activity in data set [1], in [5] and in data set [2] were 0%, greater than 90% and greater than 90%, respectively.
For the compound `CCCSP(=O)(NC)N1CCOC1=O` (stereo not given), the values for the Activity in data set [14], in [12] and in data set [13] were greater than 25%, greater than 90% and greater than 90%, respectively.
In turn, `CCOP(=O)(SC(C)CC)N1CCSC1=O` (stereo in doubt; (-)-8) [FOSTHIAZATE] displayed an EC50 in [6] of 0.079 ppm. The LC50 is given as greater than 13.2 ppm in data set [7] and 35.7 ppm in data set [8]. Moreover, the Activity in [9] amounted to 0.108 µg. Besides, in data set [19], the IC50 was greater than 1000 µM.
Consider `CCOP(=O)(SC(C)CC)N1CC(C(C)(C)C)OC1=O` (stereo not given), for which the Activity is given as 0% in [11], greater than 90% in data set [12] and greater than 90% in [17].
With `CCOP(=O)(SC(C)CC)N1CC(=O)SC1=O` (stereo not given), the Activity in data set [14] is listed as greater than 25%; in data set [15], less than 90%; in [16], less than 90%.
Regarding `CCCOP(=O)(SC(C)CC)N1CCOC1=O` (stereo not given), the Activity in data set [11] was 0%; in data set [12], greater than 90%; in data set [13], greater than 90%.
Turning to `CCOP(=O)(OCC)N1CCOC1=O`, the Activity is greater than 25% in data set [14], less than 90% in [15] and less than 90% in [16].
For the compound `CCOP(=O)(SC(C)CC)N1C(=O)OCC1CC` (stereo not given), the Activity is reported as 0% in data set [1], greater than 90% in [5] and greater than 90% in [2].
On to `CCOP(=O)(SC(C)CC)N1C(=O)CCC1=O` (stereo not given), for which the pKa in data set [4] was determined as 9.6. Moreover, the results for the Activity in data set [14], in data set [15] and in data set [16] were greater than 25%, less than 90% and less than 90%, respectively.
Turning to `CCOP(=O)(SC(C)CC)N1C(=O)OCC1C` (stereo not given), the Activity in [1] is 0%; in data set [5], greater than 90%; in data set [2] it was greater than 90%.
In the case of `CCC(C)SP(=O)(OCCF)N1CCOC1=O` (stereo not given), the Activity was 0% in data set [11], greater than 90% in data set [12] and less than 90% in data set [16].
With `CCCSP(=O)(SC)N1CCOC1=O` (stereo not given), the Activity in data set [14] was greater than 25%; in data set [15], less than 90%; in data set [16], less than 90%.
In the case of `CCOP(=O)(SC(C)C)N1CCOC1=O` (stereo not given), the values for the Activity in [11], in [12] and in [13] were 0%, greater than 90% and greater than 90%, respectively.
Turning to `CCCCC1COC(=O)N1P(=O)(OCC)SC(C)CC` (stereo not given), the Activity in [10] is given as 0%; in data set [15], less than 90%; in [13], greater than 90%.
`CCOP(=O)(SC(C)CC)N1CCCC1=O` (stereo not given): the Activity in [1] is given as 0%; in data set [18], greater than 90%; in data set [13], greater than 90%.
For the compound `CCOP(=O)(SC(C)CC)N1CCCOC1=O` (stereo not given), the Activity is listed as 0% in [11], greater than 90% in data set [12] and greater than 90% in data set [13].

Broadly, the LD50 is the dose expected to kill half of the subjects tested. The pKa is the negative logarithm of the acid dissociation constant. Read a high pKa as a weaker acid or stronger base. In general, LC50 refers to the concentration lethal to half of the exposed cells or organisms. A higher LC50 goes with a less lethal substance.

Source of the values: ChEMBL document CHEMBL3044645, “Synthesis and Pesticidal Activities of N-Phosphinoyl Heterocycles” (J Pestic Sci, 1997).
